Structures can show the parent of a compound that is named as a salt. Where two headings read alike, the source gives them in different places.
Tested on: Aβ1-42 production in H4 cells stably transfected with APP751 containing the Swedish mutation
Experiment: Cellular assay for inhibition of Aβ1-42 production (H4 APP751 SWE clone 8.20)
Type: cell-based
Conditions: H4 APP751 SWE clone 8.20 cells, 19 h incubation, read-out: Aβ42 cellular IC50
Description: Cellular Assays for Inhibition of Aβ1-40 and Aβ1-42 Production
H4 cells stably transfected with APP751 containing the Swedish mutation (H4 APP751 SWE clone 8.20, developed at BMS) were maintained in log phase through twice weekly passage at a 1:20 split. […] Following incubation for 19 h in 5% CO2 at 37° C., plates were briefly centrifuged (1000 rpm, 5 min). A 10 μl aliquot from each well was transferred to a second assay plate (Costar 3709) for Aβ40 measurements. Antibody cocktails were freshly prepared by dilution into 40 mM Tris-HCl (pH 7.4) with 0.2% BSA and added to assay plates. For Aβ42 measurements, antibodies specific for the Aβ42 neoepitope (565, developed at BMS; conjugated to the Wallac reagent (Perkin Elmer)) and the N-terminal sequence of Aβ peptide (26D6, developed at SIBIA; conjugated to APC (Perkin Elmer)) were mixed and 20 μl of the mixture was added to each well of the incubated cell plate yielding a final concentration of 0.8 ng/well 565 and 75 ng/well 26D6. For the Aβ40 measurements, antibodies specific for the Aβ40 neoepitope (TSD, developed at BMS; conjugated to the Wallac reagent (Perkin Elmer)) and 26D6 as described above were mixed and 20 μl of the mixture was added to the 10 μl aliquots which had been removed previously from the cell plate yielding a final concentration of 1.6 ng/well TSD and 17.5 ng/well 26D6. Assay plates containing antibodies were sealed with aluminum foil and incubated overnight at 4° C. Signal was determined using a Viewlux counter (Perkin Elmer) and IC50 values determined using curve fitting in CurveMaster (Excel Fit based).

| SMILES | IC50 (19 h) [µM] | IC50 [µM] |
| --- | --- | --- |
| Cc1ncc(-c2ccc3c(c2)[C@@]2(C)N=C(N)SC[C@H]2CCO3)s1 (relative stereo) [Example 26, rel-(4aS,11bS)-11b-Methyl-10-(2-methylthiazol-5-yl)-4a,5,6,11b-tetrahydro-4H-benzo[2,3]oxepino[4,5-d][1,3]thiazin-2-amine, 2,2,2-trifluoroacetate salt] | 8.5 |  |
| C[C@]12N=C(N)SC[C@H]1CCOc1ccc(-c3cncnc3)cc12 (relative stereo) [Example 27, rel-(4aS,11bS)-11b-methyl-10-(pyrimidin-5-yl)-4a,5,6,11b-tetrahydro-4H-benzo[2,3]oxepino[4,5-d][1,3]thiazin-2-amine, bis(2,2,2-trifluoroacetate)] | 2.9 |  |
| C[C@]12N=C(N)SC[C@H]1CCOc1ccc(-c3cc4cc(C#N)ccc4[nH]3)cc12 (relative stereo) [Example 28, rel-2-((4aS,11bS)-2-amino-11b-methyl-4a,5,6,11b-tetrahydro-4H-benzo[2,3]oxepino[4,5-d][1,3]thiazin-10-yl)-1H-indole-5-carbonitrile, 2,2,2-trifluoroacetate salt] | 9.7 |  |
| C[C@]12N=C(N)SC[C@H]1CCOc1ccc(-c3cncc4ccccc34)cc12 (relative stereo) [Example 29, rel-(4aS,11bS)-10-(isoquinolin-4-yl)-11b-methyl-4a,5,6,11b-tetrahydro-4H-benzo[2,3]oxepino[4,5-d][1,3]thiazin-2-amine, bis(2,2,2-trifluoroacetate)] | 4.6 |  |
| C[C@]12N=C(N)SC[C@H]1CCOc1ccc(-c3c[nH]c4ccccc34)cc12 (relative stereo) [Example 30, rel-(4aS,11bS)-10-(1H-indol-3-yl)-11b-methyl-4a,5,6,11b-tetrahydro-4H-benzo[2,3]oxepino[4,5-d][1,3]thiazin-2-amine, 2,2,2-trifluoroacetate salt] | 16 |  |
| COc1ccc(-c2cn(-c3ccc4c(c3)[C@@]3(C)N=C(N)SC[C@H]3CCO4)cn2)cc1 (relative stereo) [Example 31, rel-(4aS,11bS)-10-(4-(4-Methoxyphenyl)-1H-imidazol-1-yl)-11b-methyl-4a,5,6,11b-tetrahydro-4H-benzo[2,3]oxepino[4,5-d][1,3]thiazin-2-amine, bis(2,2,2-trifluoroacetate)] | 9.4 |  |
| C[C@]12N=C(N)SC[C@H]1CCOc1ccc(-n3cccn3)cc12 (relative stereo) [Example 32, rel-(4aS,11bS)-11b-Methyl-10-(1H-pyrazol-1-yl)-4a,5,6,11b-tetrahydro-4H-benzo[2,3]oxepino[4,5-d][1,3]thiazin-2-amine, 2,2,2-trifluoroacetate] | 11 |  |
| C[C@]12N=C(N)SC[C@H]1CCOc1ccc(NC(=O)c3ccc(Cl)cn3)cc12 (relative stereo) [Example 33, rel-N-((4aS,11bS)-2-amino-11b-methyl-4a,5,6,11b-tetrahydro-4H-benzo[2,3]oxepino[4,5-d][1,3]thiazin-10-yl)-5-chloropicolinamide, 2,2,2-trifluoroacetate salt] | 0.034 |  |
| C[C@]12N=C(N)SC[C@H]1CCOc1ccc(NC(=O)c3ncc(Cl)cc3Cl)cc12 (relative stereo) [Example 34, rel-N-((4aS,11bS)-2-Amino-11b-methyl-4a,5,6,11b-tetrahydro-4H-benzo[2,3]oxepino[4,5-d][1,3]thiazin-10-yl)-3,5-dichloropicolinamide, 2,2,2-trifluoroacetate salt] | 0.026 |  |
| C[C@]12N=C(N)SC[C@H]1CCOc1ccc(NC(=O)c3ccc(C#N)cn3)cc12 (relative stereo) [Example 35, rel-N-((4aS,11bS)-2-Amino-11b-methyl-4a,5,6,11b-tetrahydro-4H-benzo[2,3]oxepino[4,5-d][1,3]thiazin-10-yl)-5-cyanopicolinamide, 2,2,2-trifluoroacetate salt] | 0.028 |  |
| C[C@]12N=C(N)SC[C@H]1CCOc1ccc(NC(=O)c3ccc(F)cn3)cc12 (relative stereo) [Example 36, rel-N-((4aS,11bS)-2-Amino-11b-methyl-4a,5,6,11b-tetrahydro-4H-benzo[2,3]oxepino[4,5-d][1,3]thiazin-10-yl)-5-fluoropicolinamide, 2,2,2-trifluoroacetate salt] | 0.085 |  |
| C[C@]12N=C(N)SC[C@H]1CCOc1ccc(Nc3ncccc3Cl)cc12 (relative stereo) [Example 37, rel-(4aS,11bS)—N10-(3-Chloropyridin-2-yl)-11b-methyl-4a,5,6,11b-tetrahydro-4H-benzo[2,3]oxepino[4,5-d][1,3]thiazine-2,10-diamine, bis(2,2,2-trifluoroacetate)] | 1.4 |  |
| COc1cccnc1Nc1ccc2c(c1)[C@@]1(C)N=C(N)SC[C@H]1CCO2 (relative stereo) [Example 38, rel-(4aS,11bS)—N10-(3-Methoxypyridin-2-yl)-11b-methyl-4a,5,6,11b-tetrahydro-4H-benzo[2,3]oxepino[4,5-d][1,3]thiazine-2,10-diamine, bis(2,2,2-trifluoroacetate)] | 1.3 |  |
| C[C@]12N=C(N)SC[C@H]1CCOc1ccc(Nc3ncccc3C#N)cc12 (relative stereo) [Example 39, rel-2-(((4aS,11bS)-2-Amino-11b-methyl-4a,5,6,11b-tetrahydro-4H-benzo[2,3]oxepino[4,5-d][1,3]thiazin-10-yl)amino)nicotinonitrile, bis(2,2,2-trifluoroacetate)] | > 30 |  |
| C[C@]12N=C(N)SC[C@H]1CCOc1ccc(Nc3ncnc4ccccc34)cc12 (relative stereo) [Example 40, rel-(4aS,11bS)-11b-Methyl-N10-(quinazolin-4-yl)-4a,5,6,11b-tetrahydro-4H-benzo[2,3]oxepino[4,5-d][1,3]thiazine-2,10-diamine, bis(2,2,2-trifluoroacetate)] | 15 |  |
| C[C@]12N=C(N)SC[C@H]1CCOc1ccc(Nc3nccc4ccccc34)cc12 (relative stereo) [Example 41, rel-(4aS,11bS)—N10-(Isoquinolin-1-yl)-11b-methyl-4a,5,6,11b-tetrahydro-4H-benzo[2,3]oxepino[4,5-d][1,3]thiazine-2,10-diamine, bis(2,2,2-trifluoroacetate)] | 16 |  |
| COc1ccnc(Nc2ccc3c(c2)[C@@]2(C)N=C(N)SC[C@H]2CCO3)n1 (relative stereo) [Example 42, rel-(4aS,11bS)—N10-(4-Methoxypyrimidin-2-yl)-11b-methyl-4a,5,6,11b-tetrahydro-4H-benzo[2,3]oxepino[4,5-d][1,3]thiazine-2,10-diamine, bis(2,2,2-trifluoroacetate)] | 1.5 |  |
| C[C@]12N=C(N)SC[C@H]1CCCc1cc(F)c(-c3cncnc3)cc12 (relative stereo) [Example 47, rel-(4aS,11bS)-9-fluoro-11b-methyl-10-(pyrimidin-5-yl)-4,4a,5,6,7,11b-hexahydrobenzo[6,7]cyclohepta[1,2-d][1,3]thiazin-2-amine, bis(2,2,2-trifluoroacetate)] | 2.7 |  |
| C[C@@]12N=C(N)SC[C@@H]1CCOc1ccc(NC(=O)c3ccc(C#N)cn3)cc12 (stereo in doubt) [Example 35a, N-((4aR,11bR)-2-amino-11b-methyl-4a,5,6,11b-tetrahydro-4H-benzo[2,3]oxepino[4,5-d][1,3]thiazin-10-yl)-5-cyanopicolinamide] |  | 5.1 |

Reference: patent US8604024B2, “Compounds for the reduction of beta-amyloid production” (Bristol-Myers Squibb Company, priority 2011, dated 2013)
